Assay results as given in patent publication US7749729B2, “Methods for assessing the risk for development of cardiovascular disease” (University of Washington, priority 2004, dated 2010).

Tests used:
[1] = biological target: T1, myeloperoxidase (Homo sapiens, UniProt P05164); experiment: Nitration of HDL by the myeloperoxidase-H2O2-NO2- system (3-nitrotyrosine formation, absorbance at 430 nm); assay type: biochemical; conditions: 250 μM H2O2, 500 μM NO2-
T1 construct: from tissue; host or cells: human neutrophils
Experimental: FIG. 1 describes nitration of HDL by the myeloperoxidase-H2O2-nitrite system. (A,C) HDL (1 mg/ml protein) was incubated for 60 min or the indicated time at 37° C. in phosphate buffer (20 mM sodium phosphate, pH 7.4, 100 μM DTPA) supplemented with 50 nM myeloperoxidase, 250 μM H2O2 and 500 μM NO2^−. Where indicated, the concentrations of (B) NO2^− were varied. 3-Nitrotyrosine formation was monitored spectroscopically following alkalinization of the reaction mixture.
FIG. 2 describes the effect of Cl^− or taurine on HDL nitration by the myeloperoxidase-H2O2—NO2^− system or HOCl—NO2^−. HDL was exposed for 60 min at 37° C. to myeloperoxidase in phosphate buffer supplemented with 250 μM H2O2, 500 μM NO2^− and (A) the indicated concentration of Cl^− or (B) the indicated concentration of taurine and 100 mM Cl^−. […]
HDL oxidation in vitro. […] Concentrations of HOCl and H2O2 were determined spectrophotometrically (ε292=350 M^−1 cm^−1 ε240=39.4 M^−1 cm^−1) (48,49). 3-Nitrotyrosine formation in a 300 μL aliquot of the reaction mixture was determined in a microplate reader by monitoring absorbance at 430 nm following the addition of NaOH to adjust the pH>9.
Myeloperoxidase generates 3-nitrotyrosine in HDL protein under physiologically relevant in vitro conditions. […] We monitored the formation of 3-nitrotyrosine spectroscopically by quantifying absorbance of the alkalinized reaction mixture at 430 nm.

[2] = tested on: mock-transfected BHK cells (low ABCA1); experiment: Cholesterol efflux from [3H]cholesterol-labeled mock-transfected BHK cells; assay type: cell-based, hamster; conditions: 2 to 4 h incubation
Experimental: (§1) FIG. 11 describes cholesterol efflux activities of native and HOCl-oxidized HDL, apo A-I, and peptide 18A. [^3H]Cholesterol-labeled mock-(A, C) or ABCA1-transfected (A-C) BHK cells were incubated for 4 h with native (Ctrl), H2O2-oxidized, or HOCl-oxidized HDL (20 µg/mL) or apo A-I (5 µg/mL) (A), for 2 h with 5 µg/mL apo A-I oxidized with the indicated mole ratio of HOCl (B), or for 2 h with control (−) or HOCl-oxidized (+) peptide Ac-18A-NH2 (20 µg/mL) (C). At the end of the incubation, [^3H]cholesterol efflux to the acceptor particle was measured. *P<0.01 compared with controls.
Cell Culture and Cholesterol Efflux. Baby hamster kidney (BHK) cells expressing mifepristone-inducible human ABCA1 were generated as previously described (35). Cellular cholesterol was labeled by adding 1 μCi/mL [^31H]cholesterol (NEN Life Science Products) to the growth medium. Twenty four hours later, strong expression of ABCA1 was induced by incubating the cells for 20 h with DMEM containing 1 mg/mL bovine serum albumin (DMEM/BSA) and 1 nM mifepristone (Vaughan et al., 2003. J Lipid Res 44:1373-1380). […] Cholesterol efflux mediated by HDL, apo A-I, or peptide was calculated as the percentage of total [^31H]cholesterol (medium plus cell) released into the medium after subtracting the value obtained with DMEM/BSA alone. […]

[3] = tested on: ABCA1-transfected BHK cells; experiment: Cholesterol efflux from [3H]cholesterol-labeled ABCA1-transfected BHK cells; assay type: cell-based, hamster; conditions: for effect of oxidation of the acceptor on cholesterol efflux, compared with native acceptor: ABCA1-transfected BHK cells, acceptor oxidized with HOCl or H2O2
Experimental: as §1
Cell Culture and Cholesterol Efflux. Baby hamster kidney (BHK) cells expressing mifepristone-inducible human ABCA1 were generated as previously described (35). Cellular cholesterol was labeled by adding 1 μCi/mL [^31H]cholesterol (NEN Life Science Products) to the growth medium. Twenty four hours later, strong expression of ABCA1 was induced by incubating the cells for 20 h with DMEM containing 1 mg/mL bovine serum albumin (DMEM/BSA) and 1 nM mifepristone (Vaughan et al., 2003. J Lipid Res 44:1373-1380). To measure cholesterol efflux, mock- or ABCA1-transfected cells were incubated with DMEM/BSA without or with HDL, apo A-I, or peptide. After 2 to 4 h, the medium and cells were assayed for [^3H]cholesterol as described (Id.). Cholesterol efflux mediated by HDL, apo A-I, or peptide was calculated as the percentage of total [^31H]cholesterol (medium plus cell) released into the medium after subtracting the value obtained with DMEM/BSA alone.
We exposed HDL or purified apo A-I to HOCl or H2O2 (80:1 or 25:1, mol/mol, oxidant:HDL particle or oxidant:apo A-I) in a physiological buffer (138 mM NaCl, 2.7 mM KCl, 10 mM sodium phosphate) at neutral pH for 120 min at 37° C., terminating the reaction with a 20-fold molar excess (relative to oxidant) of methionine. […]

T1 sequence (P05164 279-745 limits assumed): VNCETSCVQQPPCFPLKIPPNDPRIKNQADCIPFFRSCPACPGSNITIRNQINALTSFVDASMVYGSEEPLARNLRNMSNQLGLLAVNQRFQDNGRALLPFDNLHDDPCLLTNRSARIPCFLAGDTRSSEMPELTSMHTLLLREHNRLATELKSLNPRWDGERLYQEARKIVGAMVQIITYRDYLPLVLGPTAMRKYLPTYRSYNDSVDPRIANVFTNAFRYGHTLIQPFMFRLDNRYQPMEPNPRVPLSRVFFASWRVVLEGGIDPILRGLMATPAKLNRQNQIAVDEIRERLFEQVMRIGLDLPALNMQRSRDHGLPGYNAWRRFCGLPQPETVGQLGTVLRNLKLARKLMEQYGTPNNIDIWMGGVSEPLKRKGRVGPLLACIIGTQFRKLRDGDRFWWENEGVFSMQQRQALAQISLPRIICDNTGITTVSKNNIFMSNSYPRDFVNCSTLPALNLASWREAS
T1 sequence (P05164 165-273 limits assumed): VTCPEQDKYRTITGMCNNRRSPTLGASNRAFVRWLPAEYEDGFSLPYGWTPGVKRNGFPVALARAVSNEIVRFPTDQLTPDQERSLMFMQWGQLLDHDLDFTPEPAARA

Compound	cholesterol efflux to the acceptor [2]	effect of oxidation of the acceptor on cholesterol efflux, compared with native acceptor [3]	also measured
NCCS(=O)(=O)O [Taurine, 2-aminoethanesulfonic acid]			effect on HDL nitration (3-nitrotyrosine formation) in the presence of Cl- ([1]; myeloperoxidase, 100 mM Cl-, 60 min, 37° C.): no effect
Acetyl-18A-NH2	promoted cholesterol efflux		
H2O2-oxidized apo A-I: purified apo A-I exposed to H2O2 (25:1 mol/mol oxidant:apo A-I)		no effect	
HOCl-oxidized apo A-I: purified apo A-I exposed to HOCl (25:1 mol/mol oxidant:apo A-I)		significant decrease	
apo A-I: purified apolipoprotein A-I, HDL's major protein	essentially no cholesterol efflux activity		cholesterol efflux to the acceptor ([3]; ABCA1-transfected BHK cells (ABCA1 overexpressed), 2 to 4 h incubation): became active
catalase			effect on HDL nitration (3-nitrotyrosine formation) ([1]; 1 mg/ml HDL, 50 nM myeloperoxidase, pH 7.4, 37° C., catalase 200 nM, sodium azide 10 mM): inhibited
